Patent US20260294915A1, “COMBINATION THERAPY COMPRISING A MAT2A INHIBITOR AND A TOPOISOMERASE INHIBITOR, A SPLICING INHIBITOR SULFONAMIDE, OR A KIF18 INHIBITOR” (IDEAYA BIOSCIENCES, INC., priority 2023, published 2026)
Marks after values point to notes of the source that are not given here.

How the values were obtained:
Test in all cases: 10-day proliferation (CTG), SPLAM titration + 1000 nM Compound A, Bliss (Example 5; Tables 12-19)
Assay type in all cases: cell-based
Set-up in all cases: key: GDI scale -100 to 100; 0 = cell number at T0; <0 cytotoxic
Conditions in all cases: alone or + 1 uM Cmpd A
[1] = tested on: SW900
Method: (§1) Synergy was measured across the Indisulam titration with 1000 nM Compound A by Bliss Independence analysis. Bliss scores >10 are indicated by “*” and are considered synergistic. […] Synergy as reported using Bliss may be underrepresented within cytotoxic dose ranges. Growth death index values are shown for the combination titration and each single agent Compound A (Cmpd A) and Indisulam on a scale of −100 to 100 with the midpoint (0) being the number of cells at the beginning of the combination (T0). Scores less than 0 are indicated with “**” and are representative of a cytotoxic response. Bliss and GDI values are shown for five MTAP-deficient cell lines: NCI-1H838 (12A), SW900 (12B), RT112/84 (12C), UMUC5 (121D), and UMUC11 (12E).
(§2) A 10-day proliferation assay was performed in a panel of 5 MTAP-deficient and 2 wild type non-small cell lung and bladder cancer cell lines. Optimal cell seeding for all cell lines was determined by assessing the growth over a range of seeding densities in a 384-well format to identify conditions that permitted proliferation for 10 days. Cells were then plated at the optimal seeding density and treated with 20-point, two-fold dilution series of each of four structurally different SPLAMs in combination with a 1000 nM fixed concentration of Compound A. Single agent titrations for Compound A and each SPLAM were included for comparison. Concentrations tested for each SPLAM alone or in combination ranged from 0.04 nM to 20,000 nM. A plate of cells was harvested at the time of compound addition to quantify the number of cells at the start of the combination (T0). For cell quantification, the harvested cells were lysed with Promega CellTiter-Glo (CTG) reagent according to the manufacturer's protocol and the chemiluminescent signal was detected as described in Example 1 above. Cells were incubated with the drug combinations at 37° C. with 5% CO2 for 10 days. Cells were then lysed with CTG and the chemiluminescent signal was measured.
(§3) CTG values obtained after the 10-day treatment were background subtracted and expressed as a percent of the T0 value set at 100%. Data were plotted against compound concentration and fit with a four-parameter equation to generate single agent dose response curves. Percent inhibition was determined for each combination and single agent concentration compared to a DMSO control. In addition, the overall net growth or death of the cells was calculated and reported as a growth death index (GDI) value on a scale of −100 to 100 with the midpoint (0) being the number of cells at the beginning of the combination (T0).
(§4) Predicted inhibition was calculated using (Ea+Eb)−(Ea*Eb) where E equals the effect (inhibition) of each single agent (a and b). A difference between the observed inhibition percentage and the predicted inhibition percentage greater than 10% was considered synergistic. A Bliss score was only reported for combinations eliciting >20% growth inhibition (GDI value <80). Since Bliss is calculated based on growth inhibition, scores within cytotoxic dose ranges may not accurately reflect synergistic cytoxicity.
(§5) Synergy was measured across the E7820 titration with 1000 nM Compound A by Bliss Independence analysis. Bliss scores >10 are indicated by “*” and are considered synergistic. […] Synergy as reported using Bliss may be underrepresented within cytotoxic dose ranges. Growth death index values are shown for the combination titration and each single agent Compound A (Cmpd A) and Indisulam on a scale of −100 to 100 with the midpoint (0) being the number of cells at the beginning of the combination (T0). Scores less than 0 are indicated by “**” and are representative of a cytotoxic response. Bliss and GDI values are shown for five MTAP-deficient cell lines: NCI-1H838 (14A), SW900 (14B), RT112/84 (14C), UMUC5 (141)), and UMUC11 (14E).
(§6) Synergy was measured across the Chloroquinoxaline Sulfonamide titration with 1000 nM Compound A by Bliss Independence analysis.

[2] = tested on: UMUC11
Method: as §1, §2, §3, §4, §5, §6

[3] = tested on: UMUC5
Method: as §1, §2, §3, §4, §5, §6

[4] = tested on: RT112/84
Method: as §1, §2, §3, §4, §5, §6

In the case of `Cc1ccc(NS(=O)(=O)c2cccc(C#N)c2)c2[nH]cc(C#N)c12` [Compound E7820, 3-cyano-N-(3-cyano-4-methyl-1H-indol-7-yl)benzenesulfonamide], the GDI ([1]; SPLAM 0.04 nM) is reported as 97, the GDI ([1]; SPLAM 0.1 nM) is reported as 100 and the GDI ([1]; SPLAM 0.2 nM) is reported as 99. The GDI ([1]; SPLAM 0.3 nM) was 100, the GDI ([1]; SPLAM 0.6 nM) was 100 and the GDI ([1]; SPLAM 1.2 nM) was 100. The GDI ([1]; SPLAM 2.4 nM) was 100, the GDI ([1]; SPLAM 4.9 nM) was 100 and the GDI ([1]; SPLAM 9.8 nM) was 100. The GDI ([1]; SPLAM 19.5 nM) was 100, the GDI ([1]; SPLAM 39.1 nM) was 100 and the GDI ([1]; SPLAM 78.1 nM) was 100. The GDI ([1]; SPLAM 156.3 nM) was 100, the GDI ([1]; SPLAM 312.5 nM) was 28 and the GDI ([1]; SPLAM 625 nM) was −7**. The GDI ([1]; SPLAM 1250 nM) was −37**, the GDI ([1]; SPLAM 2500 nM) was −56** and the GDI ([1]; SPLAM 5000 nM) was −47**. For the same compound, the GDI ([1]; SPLAM 10000 nM) was −70**, the GDI ([1]; SPLAM 20000 nM) was −59** and the GDI ([2]; SPLAM 0.04 nM) was 100. It also gave a GDI ([2]; SPLAM 0.1 nM) of 100, a GDI ([2]; SPLAM 0.2 nM) of 100 and a GDI ([2]; SPLAM 0.3 nM) of 100. For the same compound, the GDI ([2]; SPLAM 0.6 nM) was 100, the GDI ([2]; SPLAM 1.2 nM) was 100 and the GDI ([2]; SPLAM 2.4 nM) was 100. The GDI ([2]; SPLAM 4.9 nM) was 100, the GDI ([2]; SPLAM 9.8 nM) was 100 and the GDI ([2]; SPLAM 19.5 nM) was 100. For the same compound, the GDI ([2]; SPLAM 39.1 nM) was 100, the GDI ([2]; SPLAM 78.1 nM) was 100 and the GDI ([2]; SPLAM 156.3 nM) was 100. The GDI ([2]; SPLAM 312.5 nM) was 76, the GDI ([2]; SPLAM 625 nM) was 31 and the GDI ([2]; SPLAM 1250 nM) was 11. For the same compound, the GDI ([2]; SPLAM 2500 nM) was 5, the GDI ([2]; SPLAM 5000 nM) was 4 and the GDI ([2]; SPLAM 10000 nM) was 3. It also gave a GDI ([2]; SPLAM 20000 nM) of 1, a GDI ([3]; SPLAM 0.04 nM) of 100 and a GDI ([3]; SPLAM 0.1 nM) of 100. The GDI ([3]; SPLAM 0.2 nM) was 100, the GDI ([3]; SPLAM 0.3 nM) was 100 and the GDI ([3]; SPLAM 0.6 nM) was 100. For the same compound, the GDI ([3]; SPLAM 1.2 nM) was 100, the GDI ([3]; SPLAM 2.4 nM) was 100 and the GDI ([3]; SPLAM 4.9 nM) was 100. For the same compound, the GDI ([3]; SPLAM 9.8 nM) was 100, the GDI ([3]; SPLAM 19.5 nM) was 100 and the GDI ([3]; SPLAM 39.1 nM) was 100. For the same compound, the GDI ([3]; SPLAM 78.1 nM) was 100, the GDI ([3]; SPLAM 156.3 nM) was 99 and the GDI ([3]; SPLAM 312.5 nM) was 73. For the same compound, the GDI ([3]; SPLAM 625 nM) was 31, the GDI ([3]; SPLAM 1250 nM) was 15 and the GDI ([3]; SPLAM 2500 nM) was 15. It also gave a GDI ([3]; SPLAM 5000 nM) of 7, a GDI ([3]; SPLAM 10000 nM) of 6 and a GDI ([3]; SPLAM 20000 nM) of 3. It also gave a GDI ([4]; SPLAM 0.04 nM) of 89, a GDI ([4]; SPLAM 0.1 nM) of 94 and a GDI ([4]; SPLAM 0.2 nM) of 100. The GDI ([4]; SPLAM 0.3 nM) was 100, the GDI ([4]; SPLAM 0.6 nM) was 100 and the GDI ([4]; SPLAM 1.2 nM) was 100. It also gave a GDI ([4]; SPLAM 2.4 nM) of 100, a GDI ([4]; SPLAM 4.9 nM) of 94 and a GDI ([4]; SPLAM 9.8 nM) of 100. The GDI ([4]; SPLAM 19.5 nM) was 100, the GDI ([4]; SPLAM 39.1 nM) was 100 and the GDI ([4]; SPLAM 78.1 nM) was 100. It also gave a GDI ([4]; SPLAM 156.3 nM) of 90, a GDI ([4]; SPLAM 312.5 nM) of 31 and a GDI ([4]; SPLAM 625 nM) of 6. The GDI ([4]; SPLAM 1250 nM) was −35**, the GDI ([4]; SPLAM 2500 nM) was −84** and the GDI ([4]; SPLAM 5000 nM) was −100**. For the same compound, the GDI ([4]; SPLAM 10000 nM) was −100** and the GDI ([4]; SPLAM 20000 nM) was −100**.
